One experiment relates to IL8 gene. The experiment is described as follows: RT-qPCR IL8 gene expression in BEAS-2B. The conditions noted are these: Homo sapiens, 24 h, reference gene RPL41, vs untreated control, read-out: Relative level of expression, IL8 gene. The class given is cell-based. Here is the method:
(§1) Real-time polymerase chain reaction was performed for the reference gene RPL41 (ribosomal protein L41) and the tested genes: BCL2, AIFM2, MDM2, IL6 and IL8. […] The BEAS-2B line was selected for the experiment. The expression level of selected genes was measured after 24 h of incubation with the tested substances MJ1–MJ20 at a concentration of 100 μM (Table 3).
(§2) The RT-qPCR experiment was performed for the BEAS-2B cell line. In this experiment, the IL6 and IL8 genes were studied and RPL41 was used as a reference gene (Figure 17 and Figure 18).
(§3) Gene expression studies used quantitative RT-qPCR to assess the effect of the tested quinobenzothiazines (MJ1–MJ20) on the expression of apoptosis-related genes (BCL2, AIFM2, MDM2) and pro-inflammatory cytokines (IL6, IL8) (Table 4).
(§4) BEAS-2B and HCT116 cells were seeded in 6-well plates at 2 × 10^5 cells per well and cultured in RPMI-1640 (BEAS-2B) or DMEM (HCT116) medium supplemented with 10% FBS and 1% penicillin/streptomycin at 37 °C, 5% CO2 and 95% humidity. After 24 h of incubation, the tested compounds were added at a concentration of 100 µM. After 24 h, the medium was removed from the cells, washed with PBS solution, 0.5 mL of trypsin was added per well and after 5 min it was neutralized with medium. The obtained cell suspension was centrifuged for 3 min at 2000 rpm, the supernatant was removed, and the obtained pellet was suspended in 400 µL of phenozol. Samples were frozen at −20 °C and stored until further experiment and RNA isolation.
(§5) Total RNA was isolated from cells using the A&A Biotechnology Total RNA Mini kit according to the manufacturer’s protocol. RNA quality and quantity were assessed using a NanoDrop 2000 spectrophotometer at 260/280 nm. Reverse transcription was performed using the protocol (EURx NG dART RT Kit) to obtain cDNA. After incubation, samples were placed in a freezer (−20 °C) and stored until further analysis.
(§6) The experiment was performed according to the protocol (Brilliant III Ultra Fast SYBR® Green QPCR Master Mix, Quick Reference Guide for the Bio-Rad CFX96 Real-Time PCR Detection System). RT-qPCR reaction was performed using specific primers for target genes (BCL2, AIFM2, MDM2, IL6, IL8). Gene expression was normalized to the expression of the reference gene RPL41. Reaction profiles and results were performed using Bio-Rad CFX Maestro 1.1 software from Bio-Rad. Analysis and calculations of the results obtained during RT-qPCR were performed using Microsoft Excel.
(§7) The results were analyzed using the R = 2^−ΔΔCt method, which allows for determining the relative level of gene expression (R) compared to the control. Each experiment was performed in three technical and biological replicates. RT-qPCR allowed for precise assessment of changes in the expression of genes related to the processes of apoptosis and inflammatory response under the influence of quinobenzothiazines, which allowed for identifying their potential mechanisms of action at the molecular level.
In general terms: Quantitative PCR measures a nucleic acid by following its amplification.

For another experiment, the system named is MDM2 gene. The experiment is described as follows: RT-qPCR MDM2 gene expression in BEAS-2B. The class given is cell-based, Human. The conditions noted are these: 24 h; for fold induction at 100 µM: Homo sapiens, reference gene RPL41, vs untreated control, read-out: Relative level of expression, MDM2 gene. Here is the method: as §1
The RT-qPCR experiment was performed for the BEAS-2B cell line. In this experiment, the MDM2 gene was studied and RPL41 was used as reference gene (Figure 15).
as §3, §4, §5, §6, §7

The next experiment concerns IL6 gene. The experiment is described as follows: RT-qPCR IL6 gene expression in BEAS-2B. The experiment is classed as cell-based, Human. The conditions noted are these: 24 h; for fold induction at 100 µM: Homo sapiens, reference gene RPL41, vs untreated control, read-out: Relative level of expression, IL6 gene. Here is the method:
as §1, §2, §3, §4, §5, §6, §7

Another experiment concerns AIFM2 gene. The experiment is described as follows: RT-qPCR AIFM2 gene expression in BEAS-2B. The experiment is classed as cell-based, Human. The conditions noted are these: Homo sapiens, 24 h, reference gene RPL41, vs untreated control, read-out: Relative level of expression, AIFM2 gene. The method, then: as §1
The RT-qPCR experiment was performed for the BEAS-2B cell line. In this experiment, the AIFM2 gene was studied and RPL41 was used as reference gene (Figure 16).
as §3, §4, §5, §6, §7

A further experiment deals with BEAS-2B. The experiment is described as follows: Alamar Blue cytotoxicity test, BEAS-2B. The class given is cell-based, Human. The conditions noted are these: 24 h incubation, read-out: IC50 values for BEAS-2B line. Here is the method:
The cytotoxicity of the tested chemical compounds MJ1–MJ20 was tested using the Alamar Blue test. The experiment was conducted on cell lines BEAS-2B (Figure 7), HCT116 (Figure 8), U2OS (Figure 9), MCF7 (Figure 10), SH-SY5Y (Figure 11), NHDF (Figure 12), and A549 (Figure 13). Cells were seeded in 96-well plates and incubated with the tested compounds for 24 h. The test result is the IC50 parameter, which is a measure of cytotoxic activity expressed by the concentration of the substance that causes the death of half of the analyzed cells compared to the control.
In cytotoxicity studies, the Alamar Blue test was used, which is based on the ability of living cells to reduce the non-fluorescent dye resazurin to fluorescent resorufin, which reflects the metabolic activity of cells. BEAS-2B, NHDF, HCT116, MCF7, A549, SH-SY5Y and U2OS cell lines were cultured under standard conditions, in DMEM medium supplemented with 10% FBS and 1% penicillin/streptomycin, at 37 °C, 5% CO2 and 95% humidity. Cells were seeded in 96-well plates at 1 × 10^4 cells per well and incubated for 24 h. Then, the tested compounds (MJ1–MJ20) were added at different concentrations (from 6.25 µM to 100 µM). The control contained cells untreated with the tested compounds. After 24 h of incubation, 10 µL of Alamar Blue solution was added to each well and incubated for another 2–4 h under the same conditions. The signal was measured spectrophotometrically at wavelengths of 570 nm (for resorufin) and 600 nm (for resazurin) or optionally fluorimetrically, using an excitation maximum of 570 nm and an emission maximum of 585 nm. The results were presented as percentage of cell survival relative to the control, calculating the ratio of absorbance or fluorescence of the sample to the control value. The Alamar Blue assay, due to its sensitivity and non-toxicity, allows for an accurate assessment of metabolic activity and cell survival in response to the tested quinobenzothiazines.
For orientation: Resazurin is reduced to fluorescent resorufin, in cell work by metabolically active cells.

The subject of a further experiment is BCL2 gene. The experiment is described as follows: RT-qPCR BCL2 gene expression in BEAS-2B. The conditions noted are these: 24 h; for fold induction at 100 µM: Homo sapiens, reference gene RPL41, vs untreated control, read-out: Relative level of expression, BCL2 gene. The experiment is classed as cell-based, Human. The method, then: as §1
The RT-qPCR experiment was performed for the BEAS-2B cell line. In this experiment, the BCL2 gene was studied, and RPL41 was used as the reference gene (Figure 14).
as §3, §4, §5, §6, §7

In experiment [1] the test system is xenografted MGC-803 tumor. Also on record: method as in PMID 30345465. The conditions noted are these: oral study; cited from earlier work.
In experiment [2] the test system is MGC-803 gastric cancer cells. Details: method as in PMID 30345465. The conditions noted are these: cited from earlier work.

SMILES strings stand for the structures. pIC50: −log10 of the molar value. Where two headings read alike, the source gives them in different places.

Usually pIC50 stands for the IC50 on a negative log10 scale, so that one unit is a factor of ten. In the case of `Clc1ccc2c(c1)Sc1cc3ccccc3nc1N2Cc1cn(Cc2ccccc2)nn1` [MJ11, 9-Chloro-6-[(1-benzyl-1H-1,2,3-triazol-4-yl)-methyl]-quino[3,2-b]benzo[1,4]thiazine], the fold induction at 100 µM in the experiment on IL8 gene was 1.4; with MDM2 gene it was 4.6; in the experiment on IL6 gene, 5.7; in the experiment with AIFM2 gene it was 0.8; in the experiment on BCL2 gene, 49.9. The negative logarithm of the IC50 (pIC50) in the experiment on BEAS-2B (Homo sapiens, 24 h) was 4.06.

On to `Fc1ccc(Cn2cc(CN3c4ccc(Cl)cc4Sc4cc5ccccc5nc43)nn2)cc1` [MJ12, 9-Chloro-6-((1-(4-fluorobenzyl)-1H-1,2,3-triazol-4-yl)methyl)-quino[3,2-b]benzo-[1,4]thiazine], for which the fold induction at 100 µM with IL8 gene turned out to be 4.9; with MDM2 gene, 3.8; with IL6 gene, 6.2; with AIFM2 gene it was 0.6; with BCL2 gene, 25.9. Further, the negative logarithm of the IC50 (pIC50) was 4.12 in the experiment with BEAS-2B and 4.12 in the experiment with BEAS-2B (Homo sapiens, 24 h).

As to `Clc1ccc(Cn2cc(CN3c4ccc(Cl)cc4Sc4cc5ccccc5nc43)nn2)cc1` [MJ13, 9-Chloro-6-[(1-(4-chlorobenzyl)-1H-1,2,3-triazol-4-yl)methyl]-quino[3,2-b]benzo-[1,4]thiazine], the fold induction at 100 µM was 1.7 in the experiment with IL8 gene; 2.3 in the experiment on MDM2 gene; 6.5 in the experiment with IL6 gene; 0.3 in the experiment on AIFM2 gene; 23.4 with BCL2 gene. Further, the negative logarithm of the IC50 (pIC50) with BEAS-2B (Homo sapiens, 24 h) was 4.07.

As to `N#Cc1ccc(Cn2cc(CN3c4ccc(Cl)cc4Sc4cc5ccccc5nc43)nn2)cc1` [MJ14, 4-((4-((9-Chloroquino[3,2-b]benzo[1,4]thiazin-6-yl)methyl)-1H-1,2,3-triazol-1-yl)methyl)-benzonitrile], the fold induction at 100 µM with IL8 gene came out at 3.6; with MDM2 gene, 3.7; with IL6 gene, 8.8; in the experiment with AIFM2 gene it was 1.2; in the experiment on BCL2 gene it was 43. The pIC50 with BEAS-2B (Homo sapiens, 24 h) was 4.11.

For `CSc1ccc2c(c1)Sc1cc3ccccc3nc1N2Cc1cn(Cc2ccccc2)nn1` [MJ16, 9-Methylthio-6-[(1-benzyl-1H-1,2,3-triazol-4-yl)-methyl]-quino[3,2-b]benzo[1,4]thiazine], the fold induction at 100 µM amounted to 5.1 with IL8 gene; 6.1 in the experiment with MDM2 gene; 11.4 with IL6 gene; 1.3 in the experiment on AIFM2 gene; 41.3 in the experiment on BCL2 gene. For the same compound, the pIC50 with BEAS-2B (Homo sapiens, 24 h) is 4.07.

For `CSc1ccc2c(c1)Sc1cc3ccccc3nc1N2Cc1cn(Cc2ccc(F)cc2)nn1` [MJ17, 9-Methylthio-6-((1-(4-fluorobenzyl)-1H-1,2,3-triazol-4-yl)methyl)-quino[3,2-b]-benzo[1,4]thiazine], the fold induction at 100 µM was determined as 5.7 in the experiment with IL8 gene; 11 in the experiment with MDM2 gene; 28 in the experiment on IL6 gene; 2.5 in the experiment on AIFM2 gene; 33.9 in the experiment with BCL2 gene. In the experiment with MDM2 gene (100 μM, compared to control), this compound yielded an MDM2 expression increase of 11.0 fold. The pIC50 with BEAS-2B (Homo sapiens, 24 h) was 4.14.

Take `CSc1ccc2c(c1)Sc1cc3ccccc3nc1N2Cc1cn(Cc2ccc(Cl)cc2)nn1` [MJ18, 9-Methylthio-6-[(1-(4-chlorobenzyl)-1H-1,2,3-triazol-4-yl)methyl]-quino[3,2-b]-benzo[1,4]thiazine]: the fold induction at 100 µM in the experiment on IL8 gene is 4; with MDM2 gene it was 7.1; in the experiment on IL6 gene, 20.5; with AIFM2 gene, 1.7; in the experiment with BCL2 gene it was 41.5. Also, the pIC50 in the experiment with BEAS-2B (Homo sapiens, 24 h) is 4.13.

For `CSc1ccc2c(c1)Sc1cc3ccccc3nc1N2Cc1cn(CSc2ccccc2)nn1` [MJ20, 9-Methylthio-6-((1-((phenylthio)methyl)-1H-1,2,3-triazol-4-yl)methyl)-quino[3,2-b]benzo[1,4]thiazine], the fold induction at 100 µM worked out at 6.6 in the experiment with IL8 gene; 7.7 in the experiment on MDM2 gene; 83.4 with IL6 gene; 2.8 with AIFM2 gene; 69.4 with BCL2 gene. This compound returned an IL6 expression increase in the experiment with IL6 gene (100 μM, compared to control) of 83.4 fold. Also, the pIC50 in the experiment on BEAS-2B (Homo sapiens, 24 h) was 4.08. The compound further showed a BCL2 expression increase in the experiment on BCL2 gene (100 μM, compared to control) of 69.4 fold.

For `COc1ccc(-n2cc(CN3c4ccccc4Sc4ccccc43)nn2)cc1` [compound A], in experiment [1], the “Growth of xenografted MGC-803 tumor in vivo” value is listed as “effectively inhibit the growth”. In addition, the negative logarithm of the IC50 (pIC50) in experiment [2] is 5.92.

Values taken from PMC12295927, “Design, Synthesis, and Testing of 1,2,3-Triazolo-Quinobenzothiazine Hybrids for Cytotoxic and Immunomodulatory Activity” (International Journal of Molecular Sciences, 2025).
